Reference: patent US12448394B2, “Heterocyclic pyrazole derivatives as type III receptor tyrosine kinase inhibitors” (DEVELOPMENT CENTER FOR BIOTECHNOLOGY, priority 2019, dated 2025)

Molecular target: T1, FLT3 kinase (Homo sapiens, UniProt P36888)
T1 construct: purchased SignalChem
T1 sequence (P36888 27-993): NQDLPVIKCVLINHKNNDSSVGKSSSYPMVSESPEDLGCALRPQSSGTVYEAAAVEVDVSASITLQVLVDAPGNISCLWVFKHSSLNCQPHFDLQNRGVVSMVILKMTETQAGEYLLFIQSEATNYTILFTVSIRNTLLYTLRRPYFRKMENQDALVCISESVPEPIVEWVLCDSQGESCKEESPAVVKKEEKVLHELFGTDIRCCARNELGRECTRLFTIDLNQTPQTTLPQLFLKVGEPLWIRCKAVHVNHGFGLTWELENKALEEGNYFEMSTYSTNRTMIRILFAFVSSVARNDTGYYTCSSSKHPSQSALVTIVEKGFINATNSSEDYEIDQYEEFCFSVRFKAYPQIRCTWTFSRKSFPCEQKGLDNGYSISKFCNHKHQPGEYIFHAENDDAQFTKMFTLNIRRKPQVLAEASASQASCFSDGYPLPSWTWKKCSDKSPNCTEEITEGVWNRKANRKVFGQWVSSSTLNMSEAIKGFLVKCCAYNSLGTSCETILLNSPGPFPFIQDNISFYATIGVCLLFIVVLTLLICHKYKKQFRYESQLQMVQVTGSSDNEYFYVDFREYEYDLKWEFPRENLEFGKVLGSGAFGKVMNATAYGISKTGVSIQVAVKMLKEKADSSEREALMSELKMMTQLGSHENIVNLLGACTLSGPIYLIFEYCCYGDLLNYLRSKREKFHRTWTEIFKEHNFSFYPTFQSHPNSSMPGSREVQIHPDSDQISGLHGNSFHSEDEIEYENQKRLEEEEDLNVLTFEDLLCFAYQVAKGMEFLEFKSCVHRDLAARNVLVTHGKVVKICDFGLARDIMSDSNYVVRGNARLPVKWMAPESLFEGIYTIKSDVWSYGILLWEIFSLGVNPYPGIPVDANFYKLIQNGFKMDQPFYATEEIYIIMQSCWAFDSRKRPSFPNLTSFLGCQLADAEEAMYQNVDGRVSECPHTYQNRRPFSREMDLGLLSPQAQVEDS
Test: FLT3 kinase assay (AlphaScreen)
Assay type: biochemical
Conditions: read-out: Ranking of IC50 values, FLT3
Procedure, shortened: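 Recombinant FLT3 (1.5 ng) phosphorylated biotinylated poly(Glu4:Tyr1) with 10 μM ATP in MOPS pH 7.0 buffer containing 10 mM MgCl2, 30 min at 30 °C, stopped with EDTA. Product detected by AlphaScreen; IC50 from duplicate serial dilutions.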

| SMILES | IC50 [nM] |
| --- | --- |
| Cn1ncc2ccc(-c3n[nH]c4c3Cc3sc(-c5ccc(C(=O)N6CCCC6)cc5)cc3-4)cc21 [Compound 38, (4-(3-(1-methyl-1H-indazol-6-yl)-1,4-dihydro-thieno[2′,3′:4,5]cyclopenta [1,2-c]pyrazol-6-yl)phenyl)(pyrrolidin-1-yl) methanone] | 1 to 10 |
| Cn1ncc2ccc(-c3n[nH]c4c3Cc3sc(-c5ccc(C(=O)N6CCCCC6)cc5)cc3-4)cc21 [Compound 34, (4-(3-(1-methyl-1H-indazol-6-yl)-1,4-dihydro-thieno[2′,3′:4,5]cyclopenta [1,2-c]pyrazol-6-yl)phenyl)(piperidin-1-yl) methanone] | 1 to 10 |
| CN1CCN(Cc2cccc(-c3cc4c(s3)Cc3c(-c5ccc6cnn(C)c6c5)n[nH]c3-4)c2)CC1 [Compound 14, 3-(1-methyl-1H-indazol-6-yl)-6-(3-((4-methylpiperazin-1-yl)methyl)phenyl)-1,4-dihydrothieno [2′,3′:4,5]cyclopenta[1,2-c] pyrazole] | 1 to 10 |
| Cn1ncc2ccc(-c3n[nH]c4c3Cc3sc(-c5ccc(CN6CC(F)(F)C6)cc5)cc3-4)cc21 [Compound 104, 6-(4-((3,3-difluoroazeti-din-1-yl)methyl)phenyl)-3-(1-methyl-1H-indazol-6-yl)-1,4-dihydrothieno [2′,3′:4,5]cyclopenta [1,2-c]pyrazole] | 1 to 10 |
| Cn1ncc2ccc(-c3n[nH]c4c3Cc3sc(C#CCN5CCOCC5)cc3-4)cc21 [Compound 71, 4-(3-(3-(1-methyl-1H-indazol-6-yl)-1,4-dihydro-thieno[2′,3′:4,5]cyclopenta [1,2-c]pyrazol-6-yl)prop-2-yn-1-yl)morpholine] | 1 to 10 |
| Cn1ncc2ccc(-c3n[nH]c4c3Cc3sc(C5CCN(C(=O)OC(C)(C)C)CC5)cc3-4)cc21 [Compound 58, tert-butyl-4-(3-(1-methyl-1H-indazol-6-yl)-1,4-dihydrothieno[2′,3′:4,5]cyclopenta[1,2-c]pyrazol-6-yl)piperidine-1-carboxylate] | 1 to 10 |
| Cc1cc(-c2cc3c(s2)Cc2c(-c4ccc5cnn(C)c5c4)n[nH]c2-3)ccn1 [Compound 17, 3-(1-methyl-1H-indazol-6-yl)-6-(2-methylpyridin-4-yl)-1,4-dihydrothieno [2′,3′:4,5]cyclopenta[1,2-c] pyrazole] | 1 to 10 |
| Cn1ncc2ccc(-c3n[nH]c4c3Cc3sc(-c5ccc(CN6CCOCC6)c(C(F)(F)F)c5)cc3-4)cc21 [Compound 27, 4-(4-(3-(1-methyl-1H-indazol-6-yl)-1,4-dihydrothieno[2′,3′:4,5]cyclopenta[1,2-c]pyrazol-6-yl)-2-(trifluoromethyl)benzyl)morpholine] | 1 to 10 |
| C[C@@H]1CN(Cc2cccc(-c3cc4c(s3)Cc3c(-c5ccc6cnn(C)c6c5)n[nH]c3-4)c2)C[C@H](C)O1 [Compound 12, (2S,6R)-2,6-dimethyl-4-(3-(3-(1-methyl-1H-indazol-6-yl)-1,4-dihydrothieno [2′,3′:4,5]cyclopenta[1,2-c]pyrazol-6-yl)benzyl) morpholine] | 1 to 10 |
| Cn1ncc2ccc(-c3n[nH]c4c3Cc3sc(-c5cccc(C(=O)N6CCOCC6)c5)cc3-4)cc21 [Compound 37, (3-(3-(1-methyl-1H-indazol-6-yl)-1,4-dihydro-thieno[2′,3′:4,5]cyclopenta [1,2-c]pyrazol-6-yl)phenyl)(morpholino) methanone] | 1 to 10 |
| Cn1ncc2ccc(-c3n[nH]c4c3Cc3sc(-c5ccc(CN6CC7(COC7)C6)cc5)cc3-4)cc21 [Compound 102, 6-(4-(3-(1-methyl-1H-indazol-6-yl)-1,4-dihydro-thieno[2′,3′:4,5]cyclopenta [1,2-c]pyrazol-6-yl)benzyl)-2-oxa-6-azaspiro [3.3]heptane] | < 1 |
| Cn1ncc2ccc(-c3n[nH]c4c3Cc3sc(-c5ccc(C=C6CCOCC6)cc5)cc3-4)cc21 [Compound 76, 3-(1-methyl-1H-indazol-6-yl)-6-(4-((tetrahydro-4H-pyran-4-ylidene)methyl)phenyl)-1,4-dihydrothieno[2′,3′:4,5] cyclopenta[1,2-c]pyrazole] | 1 to 10 |
| C[C@@H]1CN(Cc2ccc(-c3cc4c(s3)Cc3c(-c5ccc6cnn(C)c6c5)n[nH]c3-4)cc2)C[C@H](C)O1 [Compound 54, (2S,6R)-2,6-dimethyl-4-(4-(3-(1-methyl-1H-indazol-6-yl)-1,4-dihydro-thieno[2′,3′:4,5]cyclopenta [1,2-c]pyrazol-6-yl)benzyl)morpholine] | < 1 |
| Cn1ncc2ccc(-c3n[nH]c4c3Cc3sc(-c5ccc(CN6CCNC(=O)C6)cc5)cc3-4)cc21 [Compound 63, 4-(4-(3-(1-methyl-1H-indazol-6-yl)-1,4-dihydro-thieno[2′,3′:4,5]cyclopenta [1,2-c]pyrazol-6-yl)benzyl)piperazin-2-one] | 1 to 10 |

Further lines, results first:

| IC50 [nM] | SMILES |
| --- | --- |
| < 1 | COc1cc(-c2cc3c(s2)Cc2c(-c4ccc5cnn(C)c5c4)n[nH]c2-3)ccc1CN1CCOCC1 [Compound 24, 4-(2-methoxy-4-(3-(1-methyl-1H-indazol-6-yl)-1,4-dihydrothieno[2′,3′:4,5]cyclopenta[1,2-c]pyrazol-6-yl)benzyl)morpholine] |
| < 1 | Cc1ccc(-c2cc3c(s2)Cc2c(-c4ccc5cnn(C)c5c4)n[nH]c2-3)cn1 [Compound 33, 3-(1-methyl-1H-indazol-6-yl)-6-(6-methylpyridin-3-yl)-1,4-dihydrothieno [2′,3′:4,5]cyclopenta [1,2-c]pyrazole] |
| < 1 | CC(C)n1ncc2ccc(-c3n[nH]c4c3Cc3sc(-c5ccc(CN6CCOCC6)cc5)cc3-4)cc21 [Compound 42, 4-(4-(3-(1-isopropyl-1H-indazol-6-yl)-1,4-dihydro-thieno[2′,3′:4,5]cyclopenta [1,2-c]pyrazol-6-yl)benzyl)morpholine] |
| < 1 | Cn1ncc2ccc(-c3n[nH]c4c3Cc3sc(-c5ccc(S(=O)(=O)N6CCOCC6)cc5)cc3-4)cc21 [Compound 47, 4-((4-(3-(1-methyl-1H-indazol-6-yl)-1,4-dihydro-thieno[2′,3′:4,5]cyclopenta [1,2-c]pyrazol-6-yl)phenyl)sulfonyl) morpholine] |
| < 1 | Cn1ncc2ccc(-c3n[nH]c4c3Cc3sc(-c5cnc(N)nc5)cc3-4)cc21 [Compound 45, 5-(3-(1-methyl-1H-indazol-6-yl)-1,4-dihydrothieno [2′,3′:4,5]cyclopenta[l,2-c]pyrazol-6-yl)pyrimidin-2-amine] |
| < 1 | Cn1ncc2ccc(-c3n[nH]c4c3Cc3sc(C5CCN(C(=O)CN6CCOCC6)CC5)cc3-4)cc21 [Compound 98, 1-(4-(3-(1-methyl-1H-indazol-6-yl)-1,4-dihydro-thieno[2′,3′:4,5]cyclopenta [1,2-c]pyrazol-6-yl)piperidin-1-yl)-2-morpholinoethan-1-one] |
| < 1 | Cn1ncc2ccc(-c3n[nH]c4c3Cc3sc(N5CCOCC5)cc3-4)cc21 [Compound 78, 4-(3-(1-methyl-1H-indazol-6-yl)-1,4-dihydro-thieno[2′,3′:4,5]cyclopenta [1,2-c]pyrazol-6-yl) morpholine] |
| < 1 | Cn1ncc2ccc(-c3n[nH]c4c3Cc3sc(-c5ccc(C(=O)N6CCOCC6)cc5)cc3-4)cc21 [Compound 21, (4-(3-(1-methyl-1H-indazol-6-yl)-1,4-dihydro-thieno[2′,3′:4,5]cyclopenta [1,2-c]pyrazol-6-yl)phenyl) (morpholino)methanone] |
| < 1 | Cn1ncc2ccc(-c3n[nH]c4c3Cc3sc(-c5ccc(CCN6CCOCC6)cc5)cc3-4)cc21 [Compound 22, 4-(4-(3-(1-methyl-1H-indazol-6-yl)-1,4-dihydro-thieno[2′,3′:4,5]cyclopenta [1,2-c]pyrazol-6-yl)phenethyl)morpholine] |
| < 1 | Cn1ncc2ccc(-c3n[nH]c4c3Cc3sc(-c5ccc(CN6CCC(N7CCOCC7)CC6)cc5)cc3-4)cc21 [Compound 80, 4-(1-(4-(3-(1-methyl-1H-indazol-6-yl)-1,4-dihydro-thieno[2′,3′:4,5]cyclopenta [1,2-c]pyrazol-6-yl)benzyl)piperidin-4-yl) morpholine] |
| < 1 | Cn1ncc2ccc(-c3n[nH]c4c3Cc3sc(-c5ccc(C(=O)N6CCOCC6)c(F)c5)cc3-4)cc21 [Compound 44, (2-fluoro-4-(3-(1-methyl-1H-indazol-6-yl)-1,4-dihydrothieno[2′,3′:4,5]cyclopenta[1,2-c]pyrazol-6-yl)phenyl)(morpholino) methanone] |
| < 1 | Cn1ncc2ccc(-c3n[nH]c4c3Cc3sc(-c5ccc(CN6CCOCC6)s5)cc3-4)cc21 [Compound 51, 4-((5-(3-(1-methyl-1H-indazol-6-yl)-1,4-dihydro-thieno[2′,3′:4,5]cyclopenta [1,2-c]pyrazol-6-yl)thiophen-2-yl)methyl) morpholine] |
